8 molecules from patent US20220227772A1, “DEUTERATED TRIAZOLOPYRIMIDINES” (THE TRUSTEES OF THE UNIVERSITY OF PENNSYLVANIA, priority 2019, published 2022) can be followed below.

Read-outs that look alike come from different tables or passages of the source.

A short description of data set [1]: Plasma and brain compound levels in wild-type mice. In kind it is in vivo, mouse. The conditions noted are these: for Kp at 1 h: brain/plasma, read-out: B/P. On the procedure:
Mouse brains were homogenized in 10 mM ammonium acetate, pH 5.7 (1:2; w/v) using a handheld sonic homogenizer. Mouse plasma was obtained from blood that was collected into a 1.5 mL tube containing 0.5M EDTA solution and which was centrifuged for 10 minutes at 4500 g at […]. Aliquots (50 μL) of brain homogenates (50% w/v in 100 mM NH4OAc pH 5.75) or plasma were mixed with 0.2 ml of acetonitrile, centrifuged at 15,000 g, and the resulting supernatant was used for subsequent LC-MS/MS analysis. Compounds were detected using multiple reaction monitoring (MRM) of their specific collision-induced ion transitions. Samples were separated on an Agilent Zorbax C8 column (3.5 μm, 2.1×50 mm) at 35° C., with mobile phase A of 0.1% (v/v) formic acid, and B of acetonitrile with 0.1% (v/v) formic acid and a gradient of increasing B at 0.4 mL/min. To account for possible matrix effects on analytes, standard curves were generated for each compound from brain homogenate and plasma samples. The standard curve samples were extracted and analyzed in an identical fashion as the corresponding tissue-derived samples, and peak areas were plotted against concentration and a linear regression curve was used to obtain estimated concentrations of the tissue-derived samples using the peak areas. […]

The test system of data set [2] is acetylated α-tubulin in QBI293 cells. As to the kind of experiment: QBI293 cell-based microtubule stabilization assay, acetyl-tubulin ELISA. The conditions noted are these: 4 h incubation. On the procedure: (§1) The HEK293 cell subclone, QBI293, was maintained in DMEM supplemented with 10% fetal calf or bovine serum, 1% penicillin/streptomycin antibiotic solution and 1% glutamine at 37° C. in 5% CO2. Cells were plated into 6-well plates at a density of 800,000 cells/well. […] Test compounds were added at multiple concentrations to the test wells and incubated for 4 h. Subsequently, the media was removed and the cells were washed with 1 mL of ice-cold phosphate-buffered saline (PBS). After removal of PBS, 0.2 mL of ice-cold RIPA (0.5% sodium deoxycholate, 0.1% SDS, 1% NP-40, 5 mM EDTA, pH 8.0) containing protease inhibitor mix (1 μg/mL each of pepstatin, leupeptin, TLCK, TPCK and trypsin inhibitor), 1 mM PMSF and 1 μM trichostatin A was added to the wells. The wells were then scraped using a cell scraper and pipetted into 1.5 mL microfuge tubes. The tubes were sonicated with a handheld sonicator at 20× on a power setting of 2, followed by centrifugation for 30 min at 15,000 rpm at […]. Supernatants were removed and quantified for protein concentration and the acetyl-tubulin levels were determined using an ELISA as described.
(§2) The enzyme-linked immunosorbent assay (ELISA) was performed as previously described in Brunden, 2011, Pharmacological Research, 63:341, which is incorporated by reference herein. Briefly, 384-well plates were coated with 12G10 α-tubulin antibody (10 μg/mL; Covance, Princeton, N.J., USA) in 30 μL of cold 0.1 M bicarbonate buffer. 12G10 anti-α-tubulin antibody was originally deposited to the Developmental Studies Hybridoma Bank by Frankel and Nelsen. After overnight incubation at 4° C., the plates were blocked in Block Ace solution (Bio-Rad, Hercules, Calif., USA) for a minimum of 24 hours at 4° C. QBI-293 cell homogenates were diluted in C buffer (0.02 M sodium phosphate, 2 mM EDTA, 0.4 M NaCl, 1% BSA, 0.005% Thimerosal, pH 7.0). Typically, […] dilutions from 266 ng/μL to 22.2 ng/μL for QBI cells were performed and 30 μL of sample were added to wells in duplicate. Plates were sealed, centrifuged, and incubated overnight at 4° C. Following incubation with antigen, wells were aspirated and washed with PBS containing 0.05% Tween-20 and 0.005% thimerosal (PBS-Tween buffer). A horseradish peroxidase (HRP)-acetyl-tubulin reporter antibody was prepared by conjugating acetyl-tubulin primary antibody (Sigma Aldrich; clone 6-11B-1) to HRP using a commercially-available peroxidase labeling kit (Roche Applied Science, Indianapolis, Ind., USA). The HRP-acetyl-tubulin reporter antibody (1:1,000 v/v; Sigma Aldrich) or pre-conjugated HRP-alpha-tubulin (1:5,000 v/v; ProteinTech Group, Chicago, Ill., USA) diluted in C buffer were added to appropriate wells (30 μL per well). The plates were sealed and incubated at room temperature for 4 hours on a platform rocker, followed by washing with PBS-Tween buffer. Peroxidase substrate solution (30 μL; KPL, Gaithersburg, Md., USA) was added to each well and the reaction was quenched after 10 min with 10% phosphoric acid (30 μL). Plates were read on a SpectraMax M5 plate reader at an absorbance of 450 nm. The amount of acetyl- and alpha-tubulin protein in each sample was extrapolated using standard curves generated from serial dilutions of known protein standard (acetyl- or alpha-tubulin) concentrations.
(§3) The compounds were evaluated in a QBI293 cell-based MT assay as described in Kovalevich et al., J. Pharmacol. Exp. Ther., 2016, 357, 432-50, which is incorporated by reference herein. In summary, acetylated α-tubulin and total α-tubulin levels were determined by ELISA in cell lysates after 4 h of incubation with test compound at 1 and 10 μM (Table 1).

Data set [3] has as its system total α-tubulin in QBI293 cells. As to the kind of experiment: QBI293 cell-based MT assay, alpha-tubulin ELISA. Particulars: 4 h incubation. On the procedure:
as §1, §2, §3
For orientation: An ELISA detects its analyte on a solid surface through an enzyme-linked reagent.

The mark [4] stands for this setting: female, mouse, brain, intraperitoneal, 1 h @ 2.5 mg/kg, read-out: Brain conc.
[5] abbreviates: female, mouse, intraperitoneal, 1 h @ 2.5 mg/kg.
The mark [6] stands for this setting: female, mouse, plasma, intraperitoneal, 1 h @ 2.5 mg/kg, read-out: Plasma conc.
Setting [7] is: scaled to 5 mg/kg, read-out: Brain conc.
Setting [8] is: mouse, brain, 1 h @ 5.0 mg/kg, read-out: Brain conc.
Setting [9] is: mouse, plasma, 1 h @ 5.0 mg/kg, read-out: Plasma conc.

`[2H][C@](C)(Nc1c(-c2c(F)cc(F)cc2F)c(Cl)nc2ncnn12)C(C)(C)C` (single isomer, unassigned): the concentration at 1 h in data set [1] (setting [4]) stood at 296 ± 48 nM; in data set [1] (setting [6]), 104 ± 14 nM; in data set [1] (setting [7]), 592 nM. The Kp at 1 h in data set [1] (setting [5]) stood at 2.9. In data set [1] (scaled to 5 mg/kg), this molecule returned a Plasma conc. of 208 nM. Also, the “AcTub (acetylated-tubulin relative to vehicle-treated cells)” value in data set [2] (1 μM) was determined as 5.71 ± 0.13; in data set [2] (10 μM), 7.69 ± 0.49. Moreover, the figures for the “αTub (α-tubulin relative to vehicle-treated cells)” value in data set [3] (1 μM) and in data set [3] (10 μM) were 1.00 ± 0.03 and 1.05 ± 0.09, respectively.

Turning to `[2H][C@@](C)(Nc1c(-c2c(F)cc(F)cc2F)c(Cl)nc2ncnn12)C(C)(C)C` (single isomer, unassigned), the “AcTub (acetylated-tubulin relative to vehicle-treated cells)” value is 1.10 ± 0.07 in data set [2] (1 μM) and 2.92 ± 0.04 in data set [2] (10 μM). In addition, the “αTub (α-tubulin relative to vehicle-treated cells)” value in data set [3] (1 μM) was 1.07 ± 0.05; in data set [3] (10 μM) it was 0.85 ± 0.05.

As to `[2H]C(C)(Nc1c(-c2c(F)cc(F)cc2F)c(Cl)nc2ncnn12)C(C)C` (single isomer, unassigned) [5-chloro-N-(3-methylbutan-2-yl-2-d)-6-(2,4,6-trifluorophenyl)-[1,2,4]triazolo[1,5-a]pyrimidin-7-amine], the concentration at 1 h was determined as 551 ± 56 nM in data set [1] (setting [4]) and 199 ± 46 nM in data set [1] (setting [6]). Further, in data set [1] (setting [5]), the Kp at 1 h is 2.8.

As to `[2H]C(C)(Nc1c(-c2c(F)cc(F)cc2F)c(Cl)nc2ncnn12)C(C)C` (single isomer, unassigned) [5-chloro-N-(3-methylbutan-2-yl-2-d)-6-(2,4,6-trifluorophenyl] [5-chloro-N-(3-methylbutan-2-yl-2-d)-6-(2,4,6-trifluorophenyl)-[1,2,4]triazolo[1,5-a]pyrimidin-7-amine], the Plasma conc. in data set [1] (scaled to 5 mg/kg) is 398 nM. Besides, the concentration at 1 h in data set [1] (setting [7]) turned out to be 1102 nM. In addition, the “αTub (α-tubulin relative to vehicle-treated cells)” value in data set [3] (1 μM, enantiomer 1) was 1.16 ± 0.04; in data set [3] (1 μM, enantiomer 2), 0.93 ± 0.05; in data set [3] (10 μM, enantiomer 1), 1.20 ± 0.01; in data set [3] (10 μM, enantiomer 2), 0.93 ± 0.02.

Consider `C[C@@H](Nc1c(-c2c(F)cc(F)cc2F)c(Cl)nc2ncnn12)C(C)(C)C` [(R)-5-chloro-N-(3,3-dimethylbutan-2-yl)-6-(2,4,6-trifluorophenyl)-[1,2,4]triazolo[1,5-a]pyrimidin-7-amine], for which the concentration at 1 h came out at 153 ± 33 nM in data set [1] (setting [8]) and 69 ± 11 nM in data set [1] (setting [9]). Moreover, in data set [1] (mouse, 1 h @ 5.0 mg/kg), the Kp at 1 h is 2.2. The “AcTub (acetylated-tubulin relative to vehicle-treated cells)” value in data set [2] (1 μM) is given as 5.11 ± 0.47; in data set [2] (10 μM), 7.19 ± 0.31. For the same molecule, the “αTub (α-tubulin relative to vehicle-treated cells)” value in data set [3] (1 μM) was 1.00 ± 0.06; in data set [3] (10 μM) it was 1.03 ± 0.12.

Regarding `CC(C)[C@@H](C)Nc1c(-c2c(F)cc(F)cc2F)c(Cl)nc2ncnn12` [(R)-5-chloro-N-(3-methylbutan-2-yl)-6-(2,4,6-trifluorophenyl)-[1,2,4]triazolo[1,5-a]pyrimidin-7-amine], the results for the concentration at 1 h in data set [1] (setting [8]) and in data set [1] (setting [9]) were 812 ± 61 nM and 320 ± 93 nM, respectively. In addition, the Kp at 1 h in data set [1] (mouse, 1 h @ 5.0 mg/kg) turned out to be 2.5. In addition, the figures for the “AcTub (acetylated-tubulin relative to vehicle-treated cells)” value in data set [2] (1 μM) and in data set [2] (10 μM) were 2.08 ± 0.09 and 2.54 ± 0.10, respectively. Moreover, the “αTub (α-tubulin relative to vehicle-treated cells)” value is given as 1.10 ± 0.20 in data set [3] (1 μM) and 0.91 ± 0.17 in data set [3] (10 μM).

In the case of `C[C@H](Nc1c(-c2c(F)cc(F)cc2F)c(Cl)nc2ncnn12)C(C)(C)C` [(S)-5-chloro-N-(3,3-dimethylbutan-2-yl)-6-(2,4,6-trifluorophenyl)-[1,2,4]triazolo[1,5-a]pyrimidin-7-amine], the “AcTub (acetylated-tubulin relative to vehicle-treated cells)” value is reported as 1.03 ± 0.01 in data set [2] (1 μM) and 3.05 ± 0.18 in data set [2] (10 μM). Also, the results for the “αTub (α-tubulin relative to vehicle-treated cells)” value in data set [3] (1 μM) and in data set [3] (10 μM) were 0.80 ± 0.06 and 0.83 ± 0.06, respectively.

As for `CC(C)[C@H](C)Nc1c(-c2c(F)cc(F)cc2F)c(Cl)nc2ncnn12` [(S)-5-chloro-N-(3-methylbutan-2-yl)-6-(2,4,6-trifluorophenyl)-[1,2,4]triazolo[1,5-a]pyrimidin-7-amine], the “AcTub (acetylated-tubulin relative to vehicle-treated cells)” value in data set [2] (1 μM) is given as 1.22 ± 0.10; in data set [2] (10 μM), 2.46 ± 0.18. Further, the “αTub (α-tubulin relative to vehicle-treated cells)” value is 0.94 ± 0.04 in data set [3] (1 μM) and 0.88 ± 0.02 in data set [3] (10 μM).
